Patent publication US10988477B2 (Merck Patent GmbH, priority 2018, dated 2021)
Read-outs that look alike come from different tables or passages of the source.

How the values were obtained:
GCN2 kinase = GCN2 kinase (Homo sapiens, UniProt Q9P2K8); assay: GCN2 enzyme inhibition assay (Transcreener ADP2 fluorescence polarization); format: biochemical; conditions: 280 μM ATP
Summary of the method: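 4 nM GCN2 + 200 μM (RS)7 + compound (0–8 μM), 10 min preinc.; start with ATP (280 μM final); 1 h, 25 °C; pH 7.5 Tris/NaCl/MgCl2/DTT; ADP FP readout; IC50, Ki(app) via tight-binding fit.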

[1] = target: intracellular GCN2 (phosphorylation of the GCN2 substrate eIF2α) (Homo sapiens, UniProt Q9P2K8); assay: GCN2 cellular inhibition assay (AlphaScreen SureFire P-eIF2α Ser51, borrelidin-treated U2OS cells); format: cell-based
Chain of intracellular GCN2 (phosphorylation of the GCN2 substrate eIF2α) (Q9P2K8 whole entry): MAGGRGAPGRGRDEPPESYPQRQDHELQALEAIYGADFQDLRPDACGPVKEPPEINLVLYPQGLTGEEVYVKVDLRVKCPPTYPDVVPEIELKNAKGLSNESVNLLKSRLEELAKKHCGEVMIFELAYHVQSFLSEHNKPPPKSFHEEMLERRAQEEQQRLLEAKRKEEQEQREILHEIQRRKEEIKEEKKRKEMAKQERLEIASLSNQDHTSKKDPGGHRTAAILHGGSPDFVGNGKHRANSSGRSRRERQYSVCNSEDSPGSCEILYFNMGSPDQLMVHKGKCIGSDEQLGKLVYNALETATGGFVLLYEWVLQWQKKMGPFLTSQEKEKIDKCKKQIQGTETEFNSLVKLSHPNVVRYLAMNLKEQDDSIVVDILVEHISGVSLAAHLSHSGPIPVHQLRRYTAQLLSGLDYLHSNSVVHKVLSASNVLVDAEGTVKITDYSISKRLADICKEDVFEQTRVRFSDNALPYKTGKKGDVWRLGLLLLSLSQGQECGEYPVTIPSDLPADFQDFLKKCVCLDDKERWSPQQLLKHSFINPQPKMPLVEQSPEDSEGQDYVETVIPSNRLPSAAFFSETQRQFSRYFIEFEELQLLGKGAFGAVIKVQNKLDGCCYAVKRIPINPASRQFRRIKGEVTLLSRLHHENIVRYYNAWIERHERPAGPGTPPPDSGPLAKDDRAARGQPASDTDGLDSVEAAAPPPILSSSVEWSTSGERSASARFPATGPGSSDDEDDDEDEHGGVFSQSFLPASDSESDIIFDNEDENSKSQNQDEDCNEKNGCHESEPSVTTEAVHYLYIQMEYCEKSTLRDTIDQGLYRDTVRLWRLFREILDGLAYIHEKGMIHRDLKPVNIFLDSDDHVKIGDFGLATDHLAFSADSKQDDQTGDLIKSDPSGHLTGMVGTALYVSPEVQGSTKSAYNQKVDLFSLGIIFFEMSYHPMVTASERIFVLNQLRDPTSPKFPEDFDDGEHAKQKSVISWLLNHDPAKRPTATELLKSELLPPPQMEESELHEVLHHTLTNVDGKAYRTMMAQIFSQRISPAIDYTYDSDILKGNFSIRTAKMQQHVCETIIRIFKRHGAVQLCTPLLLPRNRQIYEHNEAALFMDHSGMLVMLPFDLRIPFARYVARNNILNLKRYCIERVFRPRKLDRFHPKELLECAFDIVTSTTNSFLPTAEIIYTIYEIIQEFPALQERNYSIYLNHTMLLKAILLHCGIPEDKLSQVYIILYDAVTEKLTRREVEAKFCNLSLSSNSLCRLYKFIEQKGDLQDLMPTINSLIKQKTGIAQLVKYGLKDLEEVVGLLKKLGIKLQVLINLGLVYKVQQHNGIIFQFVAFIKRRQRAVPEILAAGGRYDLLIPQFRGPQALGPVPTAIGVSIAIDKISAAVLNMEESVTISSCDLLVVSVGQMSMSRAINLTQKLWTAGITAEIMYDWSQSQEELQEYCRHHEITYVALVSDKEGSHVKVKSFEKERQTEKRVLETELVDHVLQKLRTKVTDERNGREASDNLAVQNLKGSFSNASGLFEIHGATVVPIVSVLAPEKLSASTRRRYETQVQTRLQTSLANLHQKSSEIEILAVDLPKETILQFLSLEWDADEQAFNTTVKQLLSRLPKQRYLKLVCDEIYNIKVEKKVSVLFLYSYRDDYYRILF
Summary of the method: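 Read-out: AlphaScreen SureFire phospho-eIF2α (Ser51) signal in U2OS lysates. Cells get 4-fold compound dilutions (top 40 μM final) plus 10 μM borrelidin, 1 h, 37 °C. Percent inhibition is relative to borrelidin-alone controls.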

[2] = compounds of Formula II, 4 nM GCN2 kinase
[3] = compounds of Formula II, biomarker assay, phosphorylated eIF2α Ser51 in borrelidin-treated U2OS cells
[4] = Enzyme activity for compounds of Formula IV, Ki(app), 25° C.
[5] = compounds of Formula IV, biomarker assay, phosphorylated eIF2α Ser51 in borrelidin-treated U2OS cells

Chain of GCN2 kinase (Q9P2K8 whole entry): as above

SMILES	Ki (GCN2 kinase; [2]) [nM]	IC50 [1, 3] [nM]	Ki (GCN2 kinase; [4]) [nM]	IC50 [1, 5] [nM]	also measured
CC1C(CO)OCCN1c1cc(-c2cnc3ccc(C(F)F)nn23)ncn1 (stereo not shown) [II-342, (4-(6-(6-(Difluoromethyl)imidazo[1,2-b]pyridazin-3-yl)pyrimidin-4-yl)-3-methylmorpholin-2-yl)methanol]	10 to 1000	500 to 5000			
CS(=O)(=O)NC[C@@H]1CN(c2cc(-c3cnc4ccc(C(F)(F)F)nn34)ccn2)CCO1 [II-224, (S)—N-((4-(4-(6-(Trifluoromethyl)imidazo[1,2-b]pyridazin-3-yl)pyridin-2-yl)morpholin-2-yl)methyl)methanesulfonamide]	10 to 1000	500 to 5000			
FC(F)(F)c1cn2c(-c3nccc(N4CCC(c5c[nH]nc5C(F)(F)F)C4)n3)cnc2cn1 (single isomer, unassigned) [IV-629, 6-(Trifluoromethyl)-3-(4-(3-(3-(trifluoromethyl)-1H-pyrazol-4-yl)pyrrolidin-1-yl)pyrimidin-2-yl)imidazo[1,2-a]pyrazine]			< 10	500 to 5000	
CC1C(c2cn[nH]c2)N(CCO)C(C)CN1c1ccnc(-c2cnc3cnc(C(F)(F)F)cn23)n1 (single isomer, unassigned) [IV-636, 2-(3,6-Dimethyl-2-(1H-pyrazol-4-yl)-4-(2-(6-(trifluoromethyl)imidazo[1,2-a]pyrazin-3-yl)pyrimidin-4-yl)piperazin-1-yl)ethan-1-ol]			< 10	500 to 5000	
COCC(=O)NCCC1CCCN(c2cc(-c3cnc4ccc(C(F)F)nn34)ncn2)C1 (stereo not shown) [II-209, N-(2-(1-(6-(6-(Difluoromethyl)imidazo[1,2-b]pyridazin-3-yl)pyrimidin-4-yl)piperidin-3-yl)ethyl)-2-methoxyacetamide]	10 to 1000	> 5000			
CC1CC(CNS(C)(=O)=O)CN(c2cc(-c3cnc4ccc(C(F)F)nn34)ncn2)C1 (stereo not shown) [II-397, N-((1-(6-(6-(Difluoromethyl)imidazo[1,2-b]pyridazin-3-yl)pyrimidin-4-yl)-5-methylpiperidin-3-yl)methyl)methanesulfonamide]	< 10	< 500			
CNS(=O)(=O)C1CCN(c2ccnc(-c3cnc4cnc(C(F)F)cn34)n2)C1 (stereo not shown) [IV-71, 1-(2-(6-(Difluoromethyl)imidazo[1,2-a]pyrazin-3-yl)pyrimidin-4-yl)-N-methylpyrrolidine-3-sulfonamide]			100 to 1000	> 5000	
CC1C(CNS(C)(=O)=O)N(C)CCN1c1cc(-c2cnc3ccc(C(F)F)nn23)ncn1 (single isomer, unassigned) [II-364, N-((4-(6-(6-(difluoromethyl)imidazo[1,2-b]pyridazin-3-yl)pyrimidin-4-yl)-1,3-dimethylpiperazin-2-yl)methyl)methanesulfonamide]	< 10	< 500			
CN1CCN(c2cc(-c3cnc4ccc(C(F)F)nn34)ncn2)CC1CC(N)=O (stereo not shown) [II-492, 2-(4-(6-(6-(Difluoromethyl)imidazo[1,2-b]pyridazin-3-yl)pyrimidin-4-yl)-1-methylpiperazin-2-yl)acetamide]	10 to 1000	500 to 5000			
CC1CN(c2cncc(-c3cnc4cnc(C(F)(F)F)cn34)n2)C(C)C(c2cn[nH]c2)N1 (single isomer, unassigned) [IV-650, 3-(6-(2,5-Dimethyl-3-(1H-pyrazol-4-yl)piperazin-1-yl)pyrazin-2-yl)-6-(trifluoromethyl)imidazo[1,2-a]pyrazine]			< 10	500 to 5000	
CC1CCC(CNS(C)(=O)=O)CN1c1cc(-c2cnc3ccc(C(F)F)nn23)ncn1 (stereo not shown) [II-3, N-((1-(6-(6-(Difluoromethyl)imidazo[1,2-b]pyridazin-3-yl)pyrimidin-4-yl)-6-methylpiperidin-3-yl)methyl)methanesulfonamide]	< 10	500 to 5000			
CS(=O)(=O)NCC1CC(O)CN(c2cc(-c3cnc4ccc(C(F)F)nn34)ncn2)C1 (stereo not shown) [II-12, N-((1-(6-(6-(Difluoromethyl)imidazo[1,2-b]pyridazin-3-yl)pyrimidin-4-yl)-5-hydroxypiperidin-3-yl)methyl)methanesulfonamide]	10 to 1000	500 to 5000			
FC(F)c1cn2c(-c3nccc(N4CCC(C5COC5)C4)n3)cnc2cn1 (stereo not shown) [IV-73, 6-(Difluoromethyl)-3-(4-(3-(oxetan-3-yl)pyrrolidin-1-yl)pyrimidin-2-yl)imidazo[1,2-a]pyrazine]			100 to 1000	> 5000	
CC1C(c2cn[nH]c2)NCCN1c1ccnc(-c2cnc3cnc(Br)cn23)n1 (single isomer, unassigned) [IV-414, 6-Bromo-3-(4-(2-methyl-3-(1H-pyrazol-4-yl)piperazin-1-yl)pyrimidin-2-yl)imidazo[1,2-a]pyrazine]			< 10	< 500	
FC(F)c1cn2c(-c3nccc(N4CCC(c5cccnc5)C4)n3)cnc2cn1 (stereo not shown) [IV-76, 6-(Difluoromethyl)-3-(4-(3-(pyridin-3-yl)pyrrolidin-1-yl)pyrimidin-2-yl)imidazo[1,2-a]pyrazine]			100 to 1000	> 5000	
Cc1ncc(-c2cnc3ccc(C(F)F)nn23)cc1N1CCC12CCN(S(C)(=O)=O)CC2 [II-44, 6-(Difluoromethyl)-3-(6-methyl-5-(7-(methylsulfonyl)-1,7-diazaspiro[3.5]nonan-1-yl)pyridin-3-yl)imidazo[1,2-b]pyridazine]	10 to 1000	500 to 5000			
CS(=O)(=O)CC1CCCN(c2cc(-c3cnc4ccc(C(F)(F)F)nn34)ccn2)C1 (stereo not shown) [II-227, 3-(2-(3-((Methylsulfonyl)methyl)piperidin-1-yl)pyridin-4-yl)-6-(trifluoromethyl)imidazo[1,2-b]pyridazine]	10 to 1000	> 5000			
FC(F)c1ccc2ncc(-c3ccnc(N4CCOC(c5cn[nH]c5)C4)c3)n2n1 (stereo not shown) [II-107, 4-(4-(6-(Difluoromethyl)imidazo[1,2-b]pyridazin-3-yl)pyridin-2-yl)-2-(1H-pyrazol-4-yl)morpholine]	10 to 1000	< 500			
CS(=O)(=O)NC[C@H]1CN(c2cc(-c3cnn4cc(F)c(C(F)F)nc34)ncn2)CCO1 [III-5, N-[[(2R)-4-[6-[5-(Difluoromethyl)-6-fluoro-pyrazolo[1,5-a]pyrimidin-3-yl]pyrimidin-4-yl]morpholin-2-yl]methyl]methanesulfonamide]					Ki (GCN2 kinase; compounds of Formula III, 4 nM GCN2 kinase): 10 to 1000 nM; IC50 ([1]; compounds of Formula III, U2OS cells, 10 μM borrelidin, 1 h, read-out: GCN2 Biomarker (IC50)): > 5000 nM
FC(F)(F)c1cn2c(-c3nccc(N4CCCC(c5cn[nH]n5)C4)n3)cnc2cn1 (stereo not shown) [IV-378, 3-(4-(3-(2H-1,2,3-Triazol-4-yl)piperidin-1-yl)pyrimidin-2-yl)-6-(trifluoromethyl)imidazo[1,2-a]pyrazine]			< 10	< 500	
CC1CN(c2cc(-c3cnc4ccc(C(N)=O)nn34)ncn2)C(C)C(c2cn[nH]c2)N1 (stereo not shown) [II-728, 3-[6-[2,5-Dimethyl-3-(1H-pyrazol-4-yl)piperazin-1-yl]pyrimidin-4-yl]imidazo[1,2-b]pyridazine-6-carboxamide]	10 to 1000	> 5000			
CCC1CC(N=S(C)(C)=O)CN(c2cc(-c3cnc4ccc(C(F)F)nn34)ncn2)C1 (single isomer, unassigned) [II-650, ((1-(6-(6-(Difluoromethyl)imidazo[1,2-b]pyridazin-3-yl)pyrimidin-4-yl)-5-ethylpiperidin-3-yl)imino)dimethyl-λ^6-sulfanone]	< 10	< 500			
Clc1cn2c(-c3nccc(N4CCOC(c5cn[nH]c5)C4)n3)cnc2cn1 (stereo not shown) [IV-6, 4-(2-(6-Chloroimidazo[1,2-a]pyrazin-3-yl)pyrimidin-4-yl)-2-(1H-pyrazol-4-yl)morpholine]			< 10	< 500	
CC1CN(c2nccc(-c3cnc4cnc(C(F)(F)F)cn34)n2)CC(c2cn[nH]c2)O1 (single isomer, unassigned) [IV-201, 2-Methyl-6-(1H-pyrazol-4-yl)-4-(4-(6-(trifluoromethyl)imidazo[1,2-a]pyrazin-3-yl)pyrimidin-2-yl)morpholine]			< 10	< 500	
OCCC1CCN(c2ccnc(-c3cnc4cnc(C(F)(F)F)cn34)n2)C1 (stereo not shown) [IV-435, 2-(1-(2-(6-(Trifluoromethyl)imidazo[1,2-a]pyrazin-3-yl)pyrimidin-4-yl)pyrrolidin-3-yl)ethan-1-ol]			100 to 1000	500 to 5000	
CC1(NS(C)(=O)=O)CCCN(c2cc(-c3cnc4ccc(C(F)F)nn34)ncn2)C1 (stereo not shown) [II-412, N-(1-(6-(6-(Difluoromethyl)imidazo[1,2-b]pyridazin-3-yl)pyrimidin-4-yl)-3-methylpiperidin-3-yl)methanesulfonamide]	10 to 1000	500 to 5000			
FC(F)(F)c1cn2c(-c3nccc(N4CCOC(c5cn[nH]c5)C4)n3)cnc2cn1 (stereo not shown) [IV-3, 2-(1H-Pyrazol-4-yl)-4-(2-(6-(trifluoromethyl)imidazo[1,2-a]pyrazin-3-yl)pyrimidin-4-yl)morpholine]			< 10	< 500	
CN1CCN(c2cc(-c3cnc4ccc(C(F)F)nn34)ccn2)CC1CNS(C)(=O)=O (stereo not shown) [II-98, N-((4-(4-(6-(Difluoromethyl)imidazo[1,2-b]pyridazin-3-yl)pyridin-2-yl)-1-methylpiperazin-2-yl)methyl)methanesulfonamide]	10 to 1000	500 to 5000			
CC(=O)N1CCN(c2cccc(-c3cnc4cnc(C(N)=O)cn34)n2)CC1 [IV-184, 3-(6-(4-Acetylpiperazin-1-yl)pyridin-2-yl)imidazo[1,2-a]pyrazine-6-carboxamide]			10 to 100	< 500	
